Data published in patent US9115072B2, “Compounds and method for reducing uric acid” (WELLSTAT THERAPEUTICS CORPORATION, priority 2008, dated 2015).
Several values for one entry are separate records, joined by “and”; a condition that tells them apart may be missing. Identical values can stand only once.

Experiments:
human URAT1 = molecular target: T1, human URAT1 (Homo sapiens, UniProt Q96S37); assay: URAT1 inhibition assay, [8-14C] urate uptake in hURAT1-HEK cells; format: cell-based; settings: 50 μM [8-14C] urate
T1 construct: The full-length hURAT1 cDNA was obtained from the vector pCMV6-XL5 and subcloned into the expression vector pCMV6-Neo
T1 sequence (Q96S37 1-553): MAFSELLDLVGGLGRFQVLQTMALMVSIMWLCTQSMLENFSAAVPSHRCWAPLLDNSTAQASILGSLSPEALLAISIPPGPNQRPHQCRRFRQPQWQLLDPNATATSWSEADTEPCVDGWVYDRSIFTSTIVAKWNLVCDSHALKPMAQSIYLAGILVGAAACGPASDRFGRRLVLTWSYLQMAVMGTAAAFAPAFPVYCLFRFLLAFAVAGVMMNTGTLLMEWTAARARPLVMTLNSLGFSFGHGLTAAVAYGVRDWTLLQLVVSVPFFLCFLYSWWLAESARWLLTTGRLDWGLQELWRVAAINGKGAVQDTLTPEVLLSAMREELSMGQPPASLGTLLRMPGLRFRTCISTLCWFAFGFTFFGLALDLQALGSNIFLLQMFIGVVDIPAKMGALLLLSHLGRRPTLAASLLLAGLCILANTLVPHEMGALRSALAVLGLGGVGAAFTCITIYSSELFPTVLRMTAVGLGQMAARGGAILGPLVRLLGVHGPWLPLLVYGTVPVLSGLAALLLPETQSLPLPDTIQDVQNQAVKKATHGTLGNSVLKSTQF
Experimental: A suitable assay involves transfection of cells (e.g. human embryonic kidney cells; “HEK”) with a vector encoding human URAT1, followed by determination of the ability of transfected cells to take up radiolabeled uric acid. The activity of compounds as URAT1 inhibitors is evaluated by their ability to block uric acid uptake by transfected cells.
Urate (50-60 mCi/mmol; American Radio Chemicals, Cat. No. ARC0513).
Plasmid vector pCMV6-XL5 containing hURAT1 cDNA (Cat. No. SC125624) and the expression vector pCMV6-Neo (Cat. No. pCMVNEO) were obtained from OriGene Technologies, Inc. The full-length hURAT1 cDNA was obtained from the vector pCMV6-XL5 and subcloned into the expression vector pCMV6-Neo to create the hURAT1 expression plasmid pCMV6-hURAT1. The sequences were verified by automatic DNA sequencing.
For transfection experiments, cells were plated on 60 mm dishes in 1 ml media per dish. […] Stable transfectants expressing hURAT1 (herein after referred as hURAT1-HEK cells) or cells having only the expression vector pCMV6-Neo (herein after referred as mock-HEK cells) were verified using reverse transcription polymerase chain reaction (RT-PCR) methods.
Before the uptake assay started, the culture medium was removed and the cells were incubated for 5 min in 0.6 ml of HBSS. After that HBSS was removed, the prepared reaction solutions were added into each well and incubated for 5 min at room temperature. Then the reaction solution was removed, cells were washed twice with 0.6 ml of cold HBSS and lysed with 0.2 ml of 0.1 M NaOH for 20 min. […] Test compounds were dissolved in DMSO and the same concentration of DMSO was added into the wells of mock-HEK cells and the hURAT1-HEK cells that didn't contain test compounds. For each test compound, the uptake assay was performed 2 times and carried out in triplicate. Urate uptake of the cells for each test condition was presented as the average percent inhibition in comparison to the DMSO control. The radioactivity values obtained for the wells that contained DMSO were taken as 100% uptake of the cells. The observed concentration-percent inhibition data were fitted to a sigmoidal concentration-effect model, where: IC50^Slope=[(100*Conc^Slope)/% Inhibition]−Conc^Slope
Additional drug concentrations were tested for determination of IC-50 values for some compounds (Table 6).

[1] = Mouse oral single-dose pharmacokinetic study; format: in vivo; settings: for Compound EH Concentration in mouse PLASMA: individual mice; for Compound EH concentr., mean: Data from Sigma Stat
Experimental: • 1. Mice received single oral gavage of Compound EH, 100 mg/kg, and plasma was collected at certain times. • 2. Plasma was stored at −80° C. until the day of analysis. • 3. Samples were thawed on 37° C. bath for 5 min and vortexed at top speed for 10 sec. • 4. Mouse plasma, 0.1 mL was mixed with 0.2 mL Acetonitrile, vortexed 1 min, spun down 14000 rpm, 17000 g, at 4° C., for 25 min. • 5. Supernatants were filtered through 0.45 micron, 4 mm, PTFE membrane syringe filter (Phenomenex #AF0-3102-52), and 15 microL were injected and resolved on Luna 3 micron, 100 A pore, C8(2), 150×3 mm, reverse phase column (Phenomenex#00E-4248-YO, SN#259151-7) in 50 min linear gradient from 40% to 69% of (0.1% Formic Acid, 89.9% Acetonitrile, 10% Methanol) at 0.25 mL/min, 100 bar, 37° C. column temperature, method 406975M1, Sequence 0205-09A, Agilent 1100 LC-MS.
All samples were run in duplicate, 210 nm and 230 nm Absorbances, Negative and Positive ionization spectrograms recorded.
• Step 1. Plasma from “Vehicle” animals (pooled), 0.19 mL, was mixed with 0.01 mL 20× stock of Compound EH in Methanol to make 500 microM, 250 microM, 125 microM, . . . , concentrations of Compound EH in plasma. • For example: 190 microL plasma+10 microL of 10 mM Compound EH in methanol=0.2 mL plasma with 500 microM Compound EH. • Step 2. Samples from step 1 were vortexed for 10 sec at top speed. • Step 3. 0.4 mL of acetonitrile was added to all samples from Step 2, and all vials were vortexed at top speed for 1 min • Step 4. All samples from step 3 were spun down 14000 rpm, 17000 g, at 4° C., for 25 min. • Step 5. Supernatants were filtered through 0.45 micron, 4 mm, PTFE membrane syringe filter (Phenomenex #AF0-3102-52), 15 microL were injected and resolved on Luna 3 micron, 100 A pore, C8(2), 150×3 mm, reverse phase column

Compound: Cc1ccc(CC(=O)O)cc1OCc1c(C)cccc1C [Compound EH, 2-(3-(2,6-Dimethylbenzyloxy)-4-methylphenyl)acetic acid]
- IC50 (human URAT1): 80 nM
- inhibition at 10 µM (human URAT1; drug concentration typically 10 micromolar, read-out: % of Inhibition (uric acid uptake)): 95.9%
- Compound EH Concentration in mouse PLASMA ([1]; 100 mg/kg single oral gavage, bleed time 0.5 HR, 100 mg/kg): 430 µM and 342 µM and 523 µM
- Compound EH Concentration in mouse PLASMA ([1]; 100 mg/kg single oral gavage, bleed time 1 HR, 100 mg/kg): 467 µM and 447 µM and 406 µM
- Compound EH Concentration in mouse PLASMA ([1]; 100 mg/kg single oral gavage, bleed time 2 HR, 100 mg/kg): 178 µM and 238 µM and 241 µM
- Compound EH Concentration in mouse PLASMA ([1]; 100 mg/kg single oral gavage, bleed time 4 HR, 100 mg/kg): 148 µM and 154 µM and 134 µM
- Compound EH Concentration in mouse PLASMA ([1]; 100 mg/kg single oral gavage, bleed time 6 HR, 100 mg/kg): 93 µM and 268 µM and 231 µM
- Compound EH Concentration in mouse PLASMA ([1]; 100 mg/kg single oral gavage, bleed time 8 HR, 100 mg/kg): 95 µM and 147 µM and 187 µM
- Compound EH Concentration in mouse PLASMA ([1]; 100 mg/kg single oral gavage, bleed time 12 HR, 100 mg/kg): 79 µM and 36 µM and 74 µM
- Compound EH Concentration in mouse PLASMA ([1]; 100 mg/kg single oral gavage, bleed time 16 HR, 100 mg/kg): 25 µM and 61 µM
- Compound EH Concentration in mouse PLASMA ([1]; 100 mg/kg single oral gavage, bleed time 24 HR, 100 mg/kg): 40 µM and 26 µM and 0.74 µM
- Compound EH Concentration in mouse PLASMA ([1]; 100 mg/kg single oral gavage, bleed time 48 HR): 0 µM
- Compound EH concentr., mean ([1]; mouse plasma, 100 mg/kg oral, time bleed 0 HR): 0 µM
- Compound EH concentr., mean ([1]; mouse plasma, 100 mg/kg oral, time bleed 0.5 HR): 431.7 µM
- Compound EH concentr., mean ([1]; mouse plasma, 100 mg/kg oral, time bleed 1 HR): 440 µM
- Compound EH concentr., mean ([1]; mouse plasma, 100 mg/kg oral, time bleed 2 HR): 219 µM
- Compound EH concentr., mean ([1]; mouse plasma, 100 mg/kg oral, time bleed 4 HR): 145.3 µM
- Compound EH concentr., mean ([1]; mouse plasma, 100 mg/kg oral, time bleed 6 HR): 197.3 µM
- Compound EH concentr., mean ([1]; mouse plasma, 100 mg/kg oral, time bleed 8 HR): 143 µM
- Compound EH concentr., mean ([1]; mouse plasma, 100 mg/kg oral, time bleed 12 HR): 63 µM
- Compound EH concentr., mean ([1]; mouse plasma, 100 mg/kg oral, time bleed 16 HR): 43 µM
- Compound EH concentr., mean ([1]; mouse plasma, 100 mg/kg oral, time bleed 24 HR): 22.247 µM
- Compound EH concentr., mean ([1]; mouse plasma, 100 mg/kg oral, time bleed 48 HR): 0 µM
- Cmax ([1]; mouse plasma, 100 mg/kg single oral gavage): 440 µM
- concentration at 0 h ([1]; mouse, plasma, 100 mg/kg oral, Time 0 HR, Table 13, read-out: Cpd. EH (mouse plasma concentration)): 0 nM
- concentration at 0.5 h ([1]; mouse, plasma, 100 mg/kg oral, Time 0.5 HR, Table 13, read-out: Cpd. EH (mouse plasma concentration)): 432 µM
- concentration at 1 h ([1]; mouse, plasma, 100 mg/kg oral, Time 1 HR, Table 13, read-out: Cpd. EH (mouse plasma concentration)): 440 µM
- concentration at 2 h ([1]; mouse, plasma, 100 mg/kg oral, Time 2 HR, Table 13, read-out: Cpd. EH (mouse plasma concentration)): 219 µM
- concentration at 4 h ([1]; mouse, plasma, 100 mg/kg oral, Time 4 HR, Table 13, read-out: Cpd. EH (mouse plasma concentration)): 145 µM
- concentration at 6 h ([1]; mouse, plasma, 100 mg/kg oral, Time 6 HR, Table 13, read-out: Cpd. EH (mouse plasma concentration)): 197 µM
- concentration at 8 h ([1]; mouse, plasma, 100 mg/kg oral, Time 8 HR, Table 13, read-out: Cpd. EH (mouse plasma concentration)): 143 µM
- concentration at 12 h ([1]; mouse, plasma, 100 mg/kg oral, Time 12 HR, Table 13, read-out: Cpd. EH (mouse plasma concentration)): 63 µM
- concentration at 16 h ([1]; mouse, plasma, 100 mg/kg oral, Time 16 HR, Table 13, read-out: Cpd. EH (mouse plasma concentration)): 43 µM
- concentration at 24 h ([1]; mouse, plasma, 100 mg/kg oral, Time 24 HR, Table 13, read-out: Cpd. EH (mouse plasma concentration)): 22 µM
- concentration at 48 h ([1]; mouse, plasma, 100 mg/kg oral, Time 48 HR, Table 13, read-out: Cpd. EH (mouse plasma concentration)): 0 nM
